Columns and labels:
bedstraw = assay: Test B pre/postemergence bedstraw; assay type: in vivo, Galium aparine
How it was run: (§1)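 Herbicidal effect was estimated by eye on a ten-point control scale after plants spent twelve to sixteen days in a greenhouse following soil or foliar treatment. Foliar sprays targeted plants at one to four leaves; all doses were formulated in a non-phytotoxic solvent with surfactant.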

blackgrass = assay: Test B pre/postemergence blackgrass; assay type: in vivo, Alopecurus myosuroides
How it was run: as §1

surinam grass = assay: Test B pre/postemergence surinam grass; assay type: in vivo, Brachiaria decumbens
How it was run: as §1

corn = assay: Test B pre/postemergence corn; assay type: in vivo, Zea mays
How it was run: as §1

crabgrass = assay: Test B pre/postemergence crabgrass; assay type: in vivo, Digitaria sanguinalis
How it was run: as §1

giant foxtail = assay: Test B pre/postemergence giant foxtail; assay type: in vivo, Setaria faberii
How it was run: as §1

morningglory = assay: Test B pre/postemergence morningglory; assay type: in vivo, Ipomoea hederacea
How it was run: as §1

rape = assay: Test B pre/postemergence rape; assay type: in vivo, Brassica napus
How it was run: as §1

soybean = assay: Test B pre/postemergence soybean; assay type: in vivo, Glycine max
How it was run: as §1

velvetleaf = assay: Test B pre/postemergence velvetleaf; assay type: in vivo, Abutilon theophrasti
How it was run: as §1

wheat = assay: Test B pre/postemergence wheat; assay type: in vivo, Triticum aestivum
How it was run: as §1

wild oat = assay: Test B pre/postemergence wild oat; assay type: in vivo, Avena fatua
How it was run: as §1

purple nutsedge = assay: Test B pre/postemergence purple nutsedge; assay type: in vivo, Cyperus rotundus
How it was run: as §1

rice = assay: Test B flood test rice; assay type: in vivo, Oryza sativa
How it was run: (§2)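 Plants were grown to the 2-leaf stage before treatment with test chemical, then held in a greenhouse for twelve to sixteen days. Injury was visually rated against untreated controls on a 0–10 scale, where 0 is no effect and 10 is complete control.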

smallflower flatsedge = assay: Test B flood test smallflower flatsedge; assay type: in vivo, Cyperus difformis
How it was run: as §2

duck salad = assay: Test B flood test duck salad; assay type: in vivo, Heteranthera limosa
How it was run: as §2

[1] = Postemergence, Rate 62 g/ha, scale 0 to 10, 0 is no effect, 10 is complete control
[2] = Postemergence, Rate 250 g/ha, scale 0 to 10, 0 no effect, 10 complete control
[3] = Preemergence, Rate 62 g/ha, scale 0 to 10, 0 is no effect, 10 is complete control
[4] = Preemergence, Rate 125 g/ha, scale 0 to 10 (0 no effect, 10 complete control)
[5] = Preemergence, Rate 250 g/ha, scale of 0 to 10 where 0 is no effect and 10 is complete control
[6] = Preemergence, Rate 500 g/ha, scale 0 (no effect) to 10 (complete control)
[7] = Rate 125 g/ha, Postemergence, scale 0 to 10, 0 no effect, 10 complete control
[8] = Rate 500 g/ha, Postemergence, 0 to 10 scale (0 no effect, 10 complete control)
[9] = Rate 31 g/ha, Postemergence section (flood test species), scale 0 to 10
[10] = Rate 125 g/ha, Postemergence section (flood test species), scale 0 to 10, 0 no effect, 10 complete control
[11] = flood test, listed under Postemergence, Rate 250 g/ha, scale 0 to 10, 0 no effect, 10 complete control

Question: For `CC(C)N(C(=O)n1oc(=O)n(-c2ccccc2OC(F)(F)F)c1=O)c1ccc(F)cc1` [Compound 14], which “Bedstraw plant response rating” value (bedstraw; [1]) is on record?
Answer: 0

Question: What about the “Bedstraw plant response rating” value (bedstraw; [2]) of the same molecule?
Answer: 0

Question: And the “Plant response rating, Bedstraw” value (bedstraw; [3])?
Answer: 0

Question: And the “Plant response rating, Bedstraw” value (bedstraw; [4])?
Answer: 0

Question: And the “Plant response rating, Bedstraw” value (bedstraw; [5])?
Answer: 0

Question: What about the “Bedstraw plant response rating” value (bedstraw; [6]) of the same molecule?
Answer: 4

Question: And the “Bedstraw plant response rating” value (bedstraw; [7])?
Answer: 0

Question: What about the “Bedstraw plant response rating” value (bedstraw; [8]) of the same molecule?
Answer: 1

Question: What about the “Blackgrass plant response rating” value (blackgrass; [1]) of the same molecule?
Answer: 0

Question: What about the “Blackgrass plant response rating” value (blackgrass; [2]) of the same molecule?
Answer: 0

Question: What about the “Plant response rating, Blackgrass” value (blackgrass; [3]) of the same molecule?
Answer: 0

Question: And the “Plant response rating, Blackgrass” value (blackgrass; [4])?
Answer: 0

Question: What about the “Plant response rating, Blackgrass” value (blackgrass; [5]) of the same molecule?
Answer: 0

Question: And the “Blackgrass plant response rating” value (blackgrass; [6])?
Answer: 2

Question: And the “Blackgrass plant response rating” value (blackgrass; [7])?
Answer: 0

Question: And the “Blackgrass plant response rating” value (blackgrass; [8])?
Answer: 3

Question: And the “B. signalgrass plant response rating” value (surinam grass; [1])?
Answer: 0

Question: And the “B. signalgrass plant response rating” value (surinam grass; [2])?
Answer: 0

Question: What about the “Plant response rating, B. signalgrass” value (surinam grass; [3]) of the same molecule?
Answer: 0

Question: And the “Plant response rating, B. signalgrass” value (surinam grass; [4])?
Answer: 0

Question: And the “Plant response rating, B. signalgrass” value (surinam grass; [5])?
Answer: 0

Question: What about the “B. signalgrass plant response rating” value (surinam grass; [6]) of the same molecule?
Answer: 2

Question: What about the “B. signalgrass plant response rating” value (surinam grass; [7]) of the same molecule?
Answer: 0

Question: And the “B. signalgrass plant response rating” value (surinam grass; [8])?
Answer: 0

Question: And the “Corn plant response rating” value (corn; [1])?
Answer: 0

Question: And the “Corn plant response rating” value (corn; [2])?
Answer: 0

Question: What about the “Plant response rating, Corn” value (corn; [3]) of the same molecule?
Answer: 0

Question: What about the “Plant response rating, Corn” value (corn; [4]) of the same molecule?
Answer: 0

Question: And the “Plant response rating, Corn” value (corn; [5])?
Answer: 0

Question: What about the “Corn plant response rating” value (corn; [6]) of the same molecule?
Answer: 4

Question: And the “Corn plant response rating” value (corn; [7])?
Answer: 0

Question: And the “Corn plant response rating” value (corn; [8])?
Answer: 0

Question: And the “Crabgrass plant response rating” value (crabgrass; [1])?
Answer: 0

Question: What about the “Crabgrass plant response rating” value (crabgrass; [2]) of the same molecule?
Answer: 0

Question: What about the “Plant response rating, Crabgrass” value (crabgrass; [3]) of the same molecule?
Answer: 0

Question: What about the “Plant response rating, Crabgrass” value (crabgrass; [4]) of the same molecule?
Answer: 0

Question: What about the “Plant response rating, Crabgrass” value (crabgrass; [5]) of the same molecule?
Answer: 9

Question: What about the “Crabgrass plant response rating” value (crabgrass; [6]) of the same molecule?
Answer: 9

Question: And the “Crabgrass plant response rating” value (crabgrass; [7])?
Answer: 0

Question: What about the “Crabgrass plant response rating” value (crabgrass; [8]) of the same molecule?
Answer: 8

Question: And the “Giant foxtail plant response rating” value (giant foxtail; [1])?
Answer: 0

Question: What about the “Giant foxtail plant response rating” value (giant foxtail; [2]) of the same molecule?
Answer: 0

Question: And the “Plant response rating, Giant foxtail” value (giant foxtail; [3])?
Answer: 6

Question: What about the “Plant response rating, Giant foxtail” value (giant foxtail; [4]) of the same molecule?
Answer: 9

Question: And the “Plant response rating, Giant foxtail” value (giant foxtail; [5])?
Answer: 9

Question: What about the “Giant foxtail plant response rating” value (giant foxtail; [6]) of the same molecule?
Answer: 9

Question: And the “Giant foxtail plant response rating” value (giant foxtail; [7])?
Answer: 0

Question: What about the “Giant foxtail plant response rating” value (giant foxtail; [8]) of the same molecule?
Answer: 3

Question: And the “Morningglory plant response rating” value (morningglory; [1])?
Answer: 1

Question: What about the “Morningglory plant response rating” value (morningglory; [2]) of the same molecule?
Answer: 4

Question: And the “Plant response rating, Morningglory” value (morningglory; [3])?
Answer: 0

Question: What about the “Plant response rating, Morningglory” value (morningglory; [4]) of the same molecule?
Answer: 0

Question: And the “Plant response rating, Morningglory” value (morningglory; [5])?
Answer: 0

Question: What about the “Morningglory plant response rating” value (morningglory; [6]) of the same molecule?
Answer: 0

Question: And the “Morningglory plant response rating” value (morningglory; [7])?
Answer: 2

Question: And the “Morningglory plant response rating” value (morningglory; [8])?
Answer: 6

Question: And the “Rape plant response rating” value (rape; [1])?
Answer: 0

Question: And the “Rape plant response rating” value (rape; [2])?
Answer: 0

Question: And the “Plant response rating, Rape” value (rape; [3])?
Answer: 0

Question: And the “Plant response rating, Rape” value (rape; [4])?
Answer: 0

Question: And the “Plant response rating, Rape” value (rape; [5])?
Answer: 0

Question: What about the “Rape plant response rating” value (rape; [6]) of the same molecule?
Answer: 0

Question: And the “Rape plant response rating” value (rape; [7])?
Answer: 0

Question: What about the “Rape plant response rating” value (rape; [8]) of the same molecule?
Answer: 0

Question: What about the “Soybean plant response rating” value (soybean; [1]) of the same molecule?
Answer: 2

Question: And the “Soybean plant response rating” value (soybean; [2])?
Answer: 2

Question: And the “Plant response rating, Soybean” value (soybean; [3])?
Answer: 0

Question: And the “Plant response rating, Soybean” value (soybean; [4])?
Answer: 0

Question: What about the “Plant response rating, Soybean” value (soybean; [5]) of the same molecule?
Answer: 0

Question: And the “Soybean plant response rating” value (soybean; [6])?
Answer: 0

Question: What about the “Soybean plant response rating” value (soybean; [7]) of the same molecule?
Answer: 2

Question: And the “Velvetleaf plant response rating” value (velvetleaf; [1])?
Answer: 0

Question: And the “Velvetleaf plant response rating” value (velvetleaf; [2])?
Answer: 0

Question: What about the “Plant response rating, Velvetleaf” value (velvetleaf; [3]) of the same molecule?
Answer: 0

Question: And the “Plant response rating, Velvetleaf” value (velvetleaf; [4])?
Answer: 0

Question: What about the “Plant response rating, Velvetleaf” value (velvetleaf; [5]) of the same molecule?
Answer: 0

Question: And the “Velvetleaf plant response rating” value (velvetleaf; [6])?
Answer: 0

Question: What about the “Velvetleaf plant response rating” value (velvetleaf; [7]) of the same molecule?
Answer: 0

Question: What about the “Wheat plant response rating” value (wheat; [1]) of the same molecule?
Answer: 0

Question: What about the “Wheat plant response rating” value (wheat; [2]) of the same molecule?
Answer: 0

Question: What about the “Plant response rating, Wheat” value (wheat; [3]) of the same molecule?
Answer: 0

Question: What about the “Plant response rating, Wheat” value (wheat; [4]) of the same molecule?
Answer: 0

Question: What about the “Plant response rating, Wheat” value (wheat; [5]) of the same molecule?
Answer: 0

Question: What about the “Wheat plant response rating” value (wheat; [6]) of the same molecule?
Answer: 0

Question: What about the “Wheat plant response rating” value (wheat; [7]) of the same molecule?
Answer: 0

Question: What about the “Wild oats plant response rating” value (wild oat; [1]) of the same molecule?
Answer: 0

Question: What about the “Wild oats plant response rating” value (wild oat; [2]) of the same molecule?
Answer: 0

Question: What about the “Plant response rating, Wild oats” value (wild oat; [4]) of the same molecule?
Answer: 0

Question: What about the “Plant response rating, Wild oats” value (wild oat; [5]) of the same molecule?
Answer: 0

Question: And the “Wild oats plant response rating” value (wild oat; [6])?
Answer: 0

Question: And the “Wild oats plant response rating” value (wild oat; [7])?
Answer: 0

Question: What about the “Nutsedge plant response rating” value (purple nutsedge; [1]) of the same molecule?
Answer: 0

Question: What about the “Nutsedge plant response rating” value (purple nutsedge; [2]) of the same molecule?
Answer: 0

Question: What about the “Plant response rating, Nutsedge” value (purple nutsedge; [3]) of the same molecule?
Answer: 0

Question: And the “Plant response rating, Nutsedge” value (purple nutsedge; [4])?
Answer: 0

Question: And the “Plant response rating, Nutsedge” value (purple nutsedge; [5])?
Answer: 0

Question: And the “Nutsedge plant response rating” value (purple nutsedge; [6])?
Answer: 0

Question: What about the “Nutsedge plant response rating” value (purple nutsedge; [7]) of the same molecule?
Answer: 0

Question: And the “Nutsedge plant response rating” value (purple nutsedge; [8])?
Answer: 0

Question: What about the “Rice plant response rating” value (rice; [1]) of the same molecule?
Answer: 0

Question: What about the “Rice plant response rating” value (rice; [9]) of the same molecule?
Answer: 0

Question: What about the “Rice plant response rating” value (rice; [10]) of the same molecule?
Answer: 0

Question: What about the “Rice plant response rating” value (rice; [11]) of the same molecule?
Answer: 0

Question: And the “S. Flatsedge plant response rating” value (smallflower flatsedge; [1])?
Answer: 0

Question: What about the “S. Flatsedge plant response rating” value (smallflower flatsedge; [10]) of the same molecule?
Answer: 0

Question: And the “S. Flatsedge plant response rating” value (smallflower flatsedge; [11])?
Answer: 0

Question: What about the “Ducksalad plant response rating” value (duck salad; [1]) of the same molecule?
Answer: 0

Question: What about the “Ducksalad plant response rating” value (duck salad; [9]) of the same molecule?
Answer: 0

Question: What about the “Ducksalad plant response rating” value (duck salad; [10]) of the same molecule?
Answer: 0

Question: And the “Ducksalad plant response rating” value (duck salad; [11])?
Answer: 0

Source: US6737383B1, “Herbicidal oxadiazolidines” (priority 1999, dated 2004)
